{"source": "patent US20200297711A1", "about": "“PHARMACEUTICAL COMPOSITION COMPRISING FGFR SELECTIVE TYROSINE KINASE INHIBITOR” (priority 2017, published 2020)", "key": {"[1]": {"experiment": "Dose escalation study: tolerability and safety (DLT, MTD, treatment emergent adverse events) of orally administered Compound A 1.5 succinate in patients with solid tumor", "assay_type": "in vivo", "protocol": "The following study was carried out in order to evaluate tolerability and safety when Compound A 1.5 succinate was orally administered to patients with solid tumor. We attempted to determine the maximum tolerated dose (MTD) by evaluating the dose limiting toxicity (DLT) when Compound A 1.5 succinate was orally administered to patients with solid tumor. Each dose in Examples is represented as a dose of Compound A in free form.\nA Modified Toxicity Probability Interval (mTPI) design was employed to determine the MTD of Compound A. Each subject was assigned a dose of Compound A in accordance with the rules of the mTPI design based on a target dose-limiting toxicity (DLT) rate of 25% and the corresponding three toxicity probability intervals that was defined as 20 to 30% (proper dosing), 0 to 20% (underdosing) and 30 to 100% (overdosing). The entire dose assignment decision rule can be precalculated under the mTPI design and presented in two-way table as below.\nIn order to evaluate the PK when administered as a single dose, a single dose of Compound A for each treatment group (at the corresponding dosage for that group) was administered on Day 1. Compound A was administered when fasted, immediately after waking up with at least 10 hours fasting. Taking any meal was prohibited for 2 hours after administration and only drinking water was allowed.\nCycle 1 was started between 8 and 10 days after dosing in Cycle 0 and Compound A was administered continuously once daily. Compound A was administered at least 2 hours after breakfast, and any food intake was prohibited for 1 hour after administration. However, on Day 8 of Cycle 1, Compound A was administered immediately after waking up while the subject was fasted after at least 10 hours of overnight fasting in order to evaluate the PK. Taking any meals was prohibited for 2 hours after administration and only drinking water was allowed.\n• (1) Grade 4 neutropenia that persists for more than 7 days or febrile neutropenia • (2) Grade 4 thrombocytopenia or Grade 3 thrombocytopenia that requires blood transfusion • (3) Any Grade 3 or higher non-hematological toxicity with the exception of: • a) Abnormal clinical laboratory values with no clinical significance. • b) Any events which can be managed and controlled to Grade 2 or less by maximal medical management. • (4) New calcification that is considered clinically significance in such as soft tissue, kidney, intestine, heart or lung confirmed by images • (5) Hyperphosphatemia defined as follows • a) >7 mg/dL>7d despite phosphate lowering therapies • b) >9 mg/dL despite phosphate lowering therapies. • (6) Development of any toxicity that is considered to be related to Compound A and where treatment interruption for 8 days or more from Cycle 0 to Cycle 1 is necessary.\nThe MTD was not defined and the recommended dose was determined to be 140 mg once daily."}, "[2]": {"tested_on": "FGFR pathway", "experiment": "Pharmacodynamics: serum Phosphate, FGF23 and 1,25-(OH)2-Vitamin D, PD markers of FGFR pathway inhibition", "assay_type": "in vivo, human", "protocol": "Serum concentrations of Phosphate, FGF23 and 1,25-(OH)2-Vitamin D, PD markers of FGFR pathway inhibition were measured before the administration of Compound A and on Day 15 of Cycle 1."}}, "data": [{"smiles": "CNC(=O)n1ccc2cc(Oc3ccnc(NC(=O)c4ccc(C5CCN(CCO)CC5)cc4)c3)c(OCCOC)cc21", "note": "[Compound A, 5-((2-(4-(1-(2-hydroxyethyl)piperidin-4-yl)benzamide)pyridin-4-yl)oxy)-6-(2-methoxyethoxy)-N-methyl-1H-indole-1-carboxamide]", "values": [{"measurement": "death or adverse events leading to study drug withdrawal", "setting": "[1]; all cohorts", "value": "No death or adverse events leading to study drug withdrawal were reported"}, {"measurement": "ALP increased, Any Gr, n (%)", "setting": "[1]; human, in vivo", "value": "3 (13)"}, {"measurement": "AST increased, Any Gr, n (%)", "setting": "[1]; human, in vivo", "value": "4 (17)"}, {"measurement": "ATL increased, Any Gr, n (%)", "setting": "[1]; human, in vivo", "value": "6 (25)"}, {"measurement": "ATL increased, ≥Gr3, n (%)", "setting": "[1]; human, in vivo", "value": "2 (8)"}, {"measurement": "Anaemia, Any Gr, n (%)", "setting": "[1]; human, in vivo", "value": "3 (13)"}, {"measurement": "Constipation, Any Gr, n (%)", "setting": "[1]; human, in vivo", "value": "2 (8)"}, {"measurement": "Creatinine increased, Any Gr, n (%)", "setting": "[1]; human, in vivo", "value": "9 (38)"}, {"measurement": "Decreased appetite, Any Gr, n (%)", "setting": "[1]; human, in vivo", "value": "2 (8)"}, {"measurement": "Decreased appetite, ≥Gr3, n (%)", "setting": "[1]; human, in vivo", "value": "1 (4)"}, {"measurement": "Diarrhoea, Any Gr, n (%)", "setting": "[1]; human, in vivo", "value": "6 (25)"}, {"measurement": "Dysgeusia, Any Gr, n (%)", "setting": "[1]; human, in vivo", "value": "3 (13)"}, {"measurement": "Hyperphosphatemia, Any Gr, n (%)", "setting": "[1]; human, in vivo", "value": "9 (38)"}, {"measurement": "Lipase increased, Any Gr, n (%)", "setting": "[1]; human, in vivo", "value": "5 (21)"}, {"measurement": "Lymphocyte count decreased, Any Gr, n (%)", "setting": "[1]; human, in vivo", "value": "2 (8)"}, {"measurement": "Malaise, Any Gr, n (%)", "setting": "[1]; human, in vivo", "value": "2 (8)"}, {"measurement": "Nausea, Any Gr, n (%)", "setting": "[1]; human, in vivo", "value": "5 (21)"}, {"measurement": "Neutrophil count decreased, Any Gr, n (%)", "setting": "[1]; human, in vivo", "value": "2 (8)"}, {"measurement": "Neutrophil count decreased, ≥Gr3, n (%)", "setting": "[1]; human, in vivo", "value": "1 (4)"}, {"measurement": "Onychomadesis, Any Gr, n (%)", "setting": "[1]; human, in vivo", "value": "2 (8)"}, {"measurement": "PPE syndrome, Any Gr, n (%)", "setting": "[1]; human, in vivo", "value": "4 (17)"}, {"measurement": "Retinal detachment, Any Gr, n (%)", "setting": "[1]; human, in vivo", "value": "3 (13)"}, {"measurement": "Stomatitis, Any Gr, n (%)", "setting": "[1]; human, in vivo", "value": "2 (8)"}, {"measurement": "Vomiting, Any Gr, n (%)", "setting": "[1]; human, in vivo", "value": "3 (13)"}, {"measurement": "Vomiting, ≥Gr3, n (%)", "setting": "[1]; human, in vivo", "value": "1 (4)"}, {"measurement": "White blood cell count decreased, Any Gr, n (%)", "setting": "[1]; human, in vivo", "value": "2 (8)"}, {"measurement": "adverse events leading to dose interruptions: anorexia", "setting": "[1]; human, in vivo", "value": 2, "unit": "patients"}, {"measurement": "adverse events leading to dose interruptions: common cold", "setting": "[1]; human, in vivo", "value": 1, "unit": "patient"}, {"measurement": "adverse events leading to dose interruptions: macular edema", "setting": "[1]; human, in vivo", "value": 1, "unit": "patient"}, {"measurement": "adverse events leading to dose interruptions: nausea", "setting": "[1]; human, in vivo", "value": 3, "unit": "patients"}, {"measurement": "adverse events leading to dose interruptions: neutrophil count decreased", "setting": "[1]; human, in vivo", "value": 1, "unit": "patient"}, {"measurement": "adverse events leading to dose interruptions: palmar-plantar erythrodysesthesia syndrome", "setting": "[1]; human, in vivo", "value": 1, "unit": "patient"}, {"measurement": "adverse events leading to dose interruptions: pyrexia", "setting": "[1]; human, in vivo", "value": 2, "unit": "patients"}, {"measurement": "adverse events leading to dose interruptions: vomiting", "setting": "[1]; human, in vivo", "value": 2, "unit": "patients"}, {"measurement": "adverse events leading to dose reductions: ALT increased", "setting": "[1]; human, in vivo", "value": 2, "unit": "patients"}, {"measurement": "adverse events leading to dose reductions: AST increased", "setting": "[1]; human, in vivo", "value": 1, "unit": "patient"}, {"measurement": "adverse events leading to dose reductions: palmar-plantar erythrodysesthesia syndrome", "setting": "[1]; human, in vivo", "value": 2, "unit": "patients"}, {"measurement": "dose limiting toxicity (DLT)", "setting": "[1]; human, in vivo", "value": "one patient at 180 mg dosing experienced the DLT (Grade 3 AST/ALT increased)"}, {"measurement": "recommended dose", "setting": "[1]; human, in vivo", "value": 140, "unit": "mg"}, {"measurement": "relation of serious adverse events to study drug", "setting": "[1]; human, in vivo", "value": "none of them were considered to be related to Compound A"}, {"measurement": "maximum tolerated dose (MTD)", "setting": "[1]; once-daily dosing up to 180 mg", "value": "not defined"}, {"measurement": "once-daily dosing at which increases of PD markers reached maximum", "setting": "[2]; Day 15 of Cycle 1", "value": "100 to 140", "unit": "mg"}, {"measurement": "change in serum Phosphate, FGF23 and 1,25-(OH)2-Vitamin D", "setting": "[2]; Day 15 of Cycle 1 vs before administration", "value": "dose-dependent increases in each marker"}]}]}
